Experimental data published in US12679878B2, “CRF2 receptor agonists and their use in therapy” (SANOFI, priority 2020, dated 2026).
Values after ≈ are worked out from the molar mass of the structure shown. Read-outs that look alike come from different tables or passages of the source. Starred links: 1 amine or outer side, 2 acyl side, 3 side chain; linkers in the order of their positions; H or OH if unused. Non-standard residues stand in square brackets, D forms with d. Residues, ends and D or L forms follow the SMILES beside them. Groups on a side chain read outwards from the residue. *: point of attachment. C18 diacid = O=C(O)CCCCCCCCCCCCCCCCC(=O)*; γGlu = O=C(O)[C@H](CCC(=O)[*:2])N[*:1]; AEEA = NCCOCCOCC(=O)O; Aib = CC(C)(N)C(=O)O

Experiments:
human CRF2α receptor = molecular target: T1, human CRF2α receptor (Homo sapiens, UniProt Q13324); test: cAMP agonism at human CRF2 α receptor in TeloHEAC cells (Example 7); format: cell-based; conditions: cAMP HTRF, TeloHEAC cells stably expressing human CRF2 α
T1 construct: expressed in transfected cells; host or cells: TeloHEAC
T1 sequence (Q13324 1-411): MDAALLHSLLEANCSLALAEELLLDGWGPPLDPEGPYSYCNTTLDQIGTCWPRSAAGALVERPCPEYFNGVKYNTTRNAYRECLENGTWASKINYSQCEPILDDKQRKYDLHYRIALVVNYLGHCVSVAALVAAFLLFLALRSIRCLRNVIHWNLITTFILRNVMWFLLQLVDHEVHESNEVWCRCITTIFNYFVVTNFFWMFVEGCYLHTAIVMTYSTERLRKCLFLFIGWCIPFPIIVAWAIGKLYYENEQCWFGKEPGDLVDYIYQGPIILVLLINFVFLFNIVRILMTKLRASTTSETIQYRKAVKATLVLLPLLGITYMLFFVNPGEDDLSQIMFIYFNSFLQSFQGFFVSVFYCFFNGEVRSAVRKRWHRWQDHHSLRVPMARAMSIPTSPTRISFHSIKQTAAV
Summary of the method: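 Percent activation was referenced to 1000 nM UCN2 (100%), and EC50 values taken as concentrations giving half of maximal response. The read-out was a homogeneous time-resolved fluorescence cAMP kit, fluorescence ratio 665/620 nm. Thawed cells (2000/well) saw compound for 30 min at RT in buffer with 2 mM IBMX and 0%/0.1% HSA.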

rat CRF2R α receptor = test: cAMP agonism at rat CRF2R α receptor in A7R5 rat aortic smooth muscle cells (Example 8); format: cell-based; conditions: cAMP HTRF, A7R5 rat aortic smooth muscle cell line, 0% HSA
Summary of the method: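 Thawed cryopreserved A7R5 cells in HBSS/20 mM HEPES (0 or 0.1% HSA) with 2 mM IBMX, 2000 cells/well, were exposed to compound for 30 min at room temperature. cAMP was read by HTRF (665/620 nm ratio) after 1 h with lysis reagents. Activity was normalised to 1000 nM urocortin 2 as 100%, and EC50 was taken as the concentration giving 50% of maximal activation.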

CRF1R receptor = molecular target: T2, CRF1R receptor (Homo sapiens, UniProt P34998); test: cAMP activity at anti-target CRF1R, CRF1R-overexpression CHO cell line (Example 9); format: cell-based; conditions: CRF1R-overexpression CHO cell line; for EC50: 0% HSA; for Emax: read-out: Emax (%)
T2 construct: host or cells: CHO-K1 clone 2
T2 sequence (P34998 24-415): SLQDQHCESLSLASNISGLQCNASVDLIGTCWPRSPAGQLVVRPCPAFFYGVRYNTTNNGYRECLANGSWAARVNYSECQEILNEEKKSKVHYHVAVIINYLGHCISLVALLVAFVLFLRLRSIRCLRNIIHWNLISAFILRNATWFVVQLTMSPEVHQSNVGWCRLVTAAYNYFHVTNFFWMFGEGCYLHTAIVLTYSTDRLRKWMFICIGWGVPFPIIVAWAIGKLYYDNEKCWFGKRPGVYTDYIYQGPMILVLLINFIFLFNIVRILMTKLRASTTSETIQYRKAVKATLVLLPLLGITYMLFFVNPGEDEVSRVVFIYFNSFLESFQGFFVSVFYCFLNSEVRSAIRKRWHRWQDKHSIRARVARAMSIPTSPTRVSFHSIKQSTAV
Summary of the method: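 cAMP accumulation was read by HTRF after 30 min at room temperature of compound treatment. Cells were cryopreserved CHO cells overexpressing CRF1R, plated at 2000/well in IBMX (2 mM)-containing HBSS/HEPES buffer with 0 or 0.1% HSA. Activity was normalized to 1000 nM UCN2 as 100%.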

[1] = Solubility in buffer systems by UPLC-UV (Example 13); format: physicochemical
Summary of the method: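 The supernatant was diluted 1:10 and quantified by UPLC-UV peak area against a reference standard curve, correcting for sequence-based extinction coefficients.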

[2] = Physical stability, Thioflavin T fibrillation assay (Example 14); format: physicochemical; conditions: Buffer B: 100 mM acetate buffer, pH 4.5, 2.7 mg/ml m-cresol; 3 mg/ml; 37° C. shaking
Protocol: The physical stability of the compounds was assessed using a Thioflavin T (ThT) assay.
The time course for fibril formation often follows the characteristic shape of a sigmoidal curve and can be separated into three regions: a lag phase, a fast growth phase, and a plateau phase. The typical fibril formation process starts with the lag phase in which the amount of partially folded peptide turned into fibrils is not significant enough to be detected. The lag-time corresponds to the time the critical mass of the nucleus is built. Afterwards, a drastic elongation phase follows and fibril concentration increases rapidly. Therefore, by measuring the increase in fluorescence intensity attributable to ThT as well as the lag time of the increase, the fibrillation tendency of a peptide can be determined, thereby providing a measure of the physical stability of the peptide.
In the present study, test compounds were diluted in buffer to a final concentration of 3 mg/ml.
The fibrillation tendencies of the peptides were determined under stress using a Fluoroskan Ascent FL or Fluoroskan Ascent fluorometer. […] Plates were sealed with Scotch Tape (Quiagen). Samples were stressed by continuous cycles of 10 s shaking at 960 rpm and 50 s rest period at 37° C. Fibril development was monitored by measuring fluorescence intensity every 20 minutes. For each sample, eight replicates were tested.

[3] = 0% HSA, read-out: EC50 [nM], 0% HSA
[4] = 0.1% HSA, read-out: EC50 [nM], 0.1% HSA

SMILES	EC50 (human CRF2α receptor; [3]) [nM]	EC50 (rat CRF2R α receptor) [nM]	EC50 (CRF1R receptor) [nM]	Emax (CRF1R receptor) [%]	solubility at 1 h ([1]; pH 4.5, Solubility in Buffer B [mg/ml]) [mg/mL]	solubility at 1 h ([1]; pH 7.4, Solubility in Buffer C [mg/ml]) [mg/mL]	EC50 (human CRF2α receptor; [4]) [nM]	Increase in FI (fluorescence intensity) [2]	Lag time [2] [h]
CC[C@H](C)[C@H](N)C(=O)N[C@H](C(=O)N[C@@H](CC(C)C)C(=O)N[C@@H](CO)C(=O)N[C@@H](CC(C)C)C(=O)N[C@@H](CC(=O)O)C(=O)N[C@H](C(=O)N1CCC[C@H]1C(=O)N[C@H](C(=O)N[C@@H](CCCCN)C(=O)N[C@@H](CC(C)C)C(=O)N[C@@H](CCCCNC(=O)COCCOCCNC(=O)COCCOCCNC(=O)CC[C@H](NC(=O)CCCCCCCCCCCCCCCCC(=O)O)C(=O)O)C(=O)N[C@@H](CCC(N)=O)C(=O)N[C@H](C(=O)N[C@@H](CC(C)C)C(=O)N[C@@H](CC(C)C)C(=O)N[C@@H](CCC(=O)O)C(=O)N[C@@H](CCC(N)=O)C(=O)N[C@@H](CCC(=O)O)C(=O)N[C@@H](CCCCN)C(=O)N[C@@H](CCC(N)=O)C(=O)N[C@@H](CCCCN)C(=O)NC(C)(C)C(=O)N[C@@H](CCC(N)=O)C(=O)N[C@@H](CCCNC(=N)N)C(=O)N[C@@H](CCC(=O)O)C(=O)N[C@@H](CCC(N)=O)C(=O)N[C@@H](C)C(=O)N[C@@H](CCC(=O)O)C(=O)N[C@H](C(=O)N[C@@H](CC(N)=O)C(=O)N[C@@H](CCCCN)C(=O)N[C@@H](CCC(N)=O)C(=O)N[C@H](C(=O)N[C@@H](CC(C)C)C(=O)N[C@@H](C)C(=O)N[C@@H](CCC(N)=O)C(=O)N[C@H](C(N)=O)C(C)C)[C@@H](C)CC)[C@@H](C)O)[C@@H](C)CC)[C@@H](C)CC)C(C)C)C(C)C [compound 79] (H-IVLSLDVPIKLK([AEEA-AEEA-γGlu-C18 diacid])QILLEQEKQK[Aib]QREQAETNKQILAQV-NH2; N-terminus assumed)	0.46	3.99	> 1000	8.74	18.9 (≈ 3.7 mM)	> 8.8	–	–	–
CC[C@H](C)[C@H](N)C(=O)N[C@H](C(=O)N[C@@H](CC(C)C)C(=O)N[C@@H](CO)C(=O)N[C@@H](CC(C)C)C(=O)N[C@@H](CC(=O)O)C(=O)N[C@@H](C(=O)N1CCC[C@H]1C(=O)N[C@H](C(=O)NCC(=O)N[C@@H](CC(C)C)C(=O)N[C@@H](CCCCNC(=O)COCCOCCNC(=O)COCCOCCNC(=O)CC[C@H](NC(=O)CCCCCCCCCCCCCCCCC(=O)O)C(=O)O)C(=O)N[C@@H](CCC(N)=O)C(=O)N[C@H](C(=O)N[C@@H](CC(C)C)C(=O)N[C@@H](CC(C)C)C(=O)N[C@@H](CCCCN)C(=O)N[C@@H](CCC(N)=O)C(=O)N[C@@H](CCC(=O)O)C(=O)N[C@@H](CCCNC(=N)N)C(=O)N[C@@H](CCC(N)=O)C(=O)N[C@@H](CCCCN)C(=O)N[C@@H](CCCCN)C(=O)NC(C)(C)C(=O)N[C@@H](CCCNC(=N)N)C(=O)N[C@@H](CCC(=O)O)C(=O)N[C@@H](CCC(N)=O)C(=O)N[C@@H](C)C(=O)N[C@@H](CCC(=O)O)C(=O)N[C@H](C(=O)N[C@@H](CC(N)=O)C(=O)N[C@@H](CCCCN)C(=O)N[C@@H](CCCNC(=N)N)C(=O)N[C@H](C(=O)N[C@@H](CC(C)C)C(=O)N[C@@H](CCC(=O)O)C(=O)N[C@@H](CCCNC(=N)N)C(=O)N[C@H](C(N)=O)C(C)C)[C@@H](C)CC)[C@@H](C)O)[C@@H](C)CC)[C@@H](C)CC)C(C)C)C(C)C [compound 83] (H-IVLSLD[dV]PIGLK([AEEA-AEEA-γGlu-C18 diacid])QILLKQERQKK[Aib]REQAETNKRILERV-NH2; N-terminus assumed)	0.07	1.83	> 1000	7.51	–	–	2.99	No	>45
CC[C@H](C)[C@H](N)C(=O)N[C@H](C(=O)N[C@@H](CC(C)C)C(=O)N[C@@H](CO)C(=O)N[C@@H](CC(C)C)C(=O)N[C@@H](CC(=O)O)C(=O)N[C@@H](C(=O)N1CCC[C@H]1C(=O)N[C@H](C(=O)N[C@@H](CCCCN)C(=O)N[C@@H](CC(C)C)C(=O)N[C@@H](CCCCNC(=O)COCCOCCNC(=O)COCCOCCNC(=O)CC[C@H](NC(=O)CCCCCCCCCCCCCCCCC(=O)O)C(=O)O)C(=O)N[C@@H](CCC(N)=O)C(=O)N[C@H](C(=O)N[C@@H](CC(C)C)C(=O)N[C@@H](CC(C)C)C(=O)N[C@@H](CCC(=O)O)C(=O)N[C@@H](CCC(N)=O)C(=O)N[C@@H](CCC(=O)O)C(=O)N[C@@H](CCCNC(=N)N)C(=O)N[C@@H](CCC(N)=O)C(=O)N[C@@H](CCCCN)C(=O)NC(C)(C)C(=O)N[C@@H](CCC(N)=O)C(=O)N[C@@H](CCCNC(=N)N)C(=O)N[C@@H](CCC(N)=O)C(=O)N[C@@H](CCC(N)=O)C(=O)N[C@@H](C)C(=O)N[C@@H](CCC(=O)O)C(=O)N[C@@H](CCCCN)C(=O)N[C@@H](CC(N)=O)C(=O)N[C@@H](CCCCN)C(=O)N[C@@H](CCC(N)=O)C(=O)N[C@H](C(=O)N[C@@H](CC(C)C)C(=O)N[C@@H](C)C(=O)N[C@@H](CCC(N)=O)C(=O)N[C@H](C(N)=O)C(C)C)[C@@H](C)CC)[C@@H](C)CC)[C@@H](C)CC)C(C)C)C(C)C [compound 131] (H-IVLSLD[dV]PIKLK([AEEA-AEEA-γGlu-C18 diacid])QILLEQERQK[Aib]QRQQAEKNKQILAQV-NH2)	0.11	0.39	–	–	–	–	2.44	No	>45
CC[C@H](C)[C@H](N)C(=O)N[C@H](C(=O)N[C@@H](CC(C)C)C(=O)N[C@@H](CO)C(=O)N[C@@H](CC(C)C)C(=O)N[C@@H](CC(=O)O)C(=O)N[C@@H](C(=O)N1CCC[C@H]1C(=O)N[C@H](C(=O)N[C@@H](CCCCN)C(=O)N[C@@H](CC(C)C)C(=O)N[C@@H](CCCCNC(=O)COCCOCCNC(=O)COCCOCCNC(=O)CC[C@H](NC(=O)CCCCCCCCCCCCCCCCC(=O)O)C(=O)O)C(=O)N[C@@H](CCC(N)=O)C(=O)N[C@H](C(=O)N[C@@H](CC(C)C)C(=O)N[C@@H](CC(C)C)C(=O)N[C@@H](CCC(=O)O)C(=O)N[C@@H](CCC(N)=O)C(=O)N[C@@H](CCC(=O)O)C(=O)N[C@@H](CCCNC(=N)N)C(=O)N[C@@H](CCC(N)=O)C(=O)N[C@@H](CCCCN)C(=O)NC(C)(C)C(=O)N[C@@H](CCC(N)=O)C(=O)N[C@@H](CCCNC(=N)N)C(=O)N[C@@H](CCC(=O)O)C(=O)N[C@@H](CCC(N)=O)C(=O)N[C@@H](C)C(=O)N[C@@H](CCC(=O)O)C(=O)N[C@@H](CCCCN)C(=O)N[C@@H](CC(N)=O)C(=O)N[C@@H](CCCCN)C(=O)N[C@@H](CCC(N)=O)C(=O)N[C@H](C(=O)N[C@@H](CC(C)C)C(=O)N[C@@H](CCC(=O)O)C(=O)N[C@@H](CCCNC(=N)N)C(=O)N[C@H](C(N)=O)C(C)C)[C@@H](C)CC)[C@@H](C)CC)[C@@H](C)CC)C(C)C)C(C)C [compound 132] (H-IVLSLD[dV]PIKLK([AEEA-AEEA-γGlu-C18 diacid])QILLEQERQK[Aib]QREQAEKNKQILERV-NH2)	0.38	0.79	> 1000	36.9	–	–	8.76	No	>45
